Laboratory results published in PubChem BioAssay (NCI).
Values joined by “and” are separate entries in the source; they are usually repeats but may differ in a detail not shown here. Equal entries are not always repeated.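 Grown in 96-well plates, cells were treated for 48 hours with each compound at five concentrations. Insufficient inhibition: endpoint recorded as highest concentration tested. The concentration for 50% growth inhibition is given as GI50. TGI: concentration producing complete growth inhibition.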

Legend:
Test in all cases: inhibition of tumour cell growth, NCI panel, 48 h
[1] = tested on: RXF 393 renal
[2] = tested on: OVCAR-8 ovarian
[3] = tested on: SK-MEL-5 melanoma
[4] = tested on: UACC-257 melanoma
[5] = tested on: PC-3 prostate
[6] = tested on: SK-MEL-28 melanoma
[7] = tested on: SNB-19 CNS
[8] = tested on: DU-145 prostate
[9] = tested on: TK-10 renal
[10] = tested on: UACC-62 melanoma

Compound | TGI [1] | TGI [2] | TGI [3] | TGI [4] | TGI [5] | TGI [6] | TGI [7] | TGI [8] | TGI [9] | TGI [10] | GI50 [2] | GI50 [3] | GI50 [4] | GI50 [5] | GI50 [10] | GI50 [1] | GI50 [6] | GI50 [7] | GI50 [8] | GI50 [9]
CCOC(=O)NC(Nc1c(F)c(F)c(F)c(F)c1F)(C(F)(F)F)C(F)(F)F | > 100 µM | > 100 µM | > 100 µM | > 100 µM | > 100 µM | > 100 µM | > 100 µM | > 100 µM | > 100 µM | > 100 µM | – | – | – | – | – | – | – | – | – | –
C[C@H]1[C@H](C)CC[C@]2(C(=O)OC3OC(CO)C(O)C(O)C3O)CC[C@]3(C)C(=CC[C@@H]4[C@@]5(C)C[C@H]6OC(=O)c7cc(O)c(O)c(O)c7-c7c(cc(O)c(O)c7O)C(=O)O[C@@H]6C(CO)(CO)[C@@H]5CC[C@]43C)[C@H]12 (stereo not given in full) | > 100 µM | > 100 µM | > 100 µM | > 100 µM | > 100 µM | > 100 µM | > 100 µM | > 100 µM | > 100 µM | > 100 µM | – | – | – | – | – | – | – | – | – | –
C(=C\c1ccccc1)/COc1ccccc1C(N1CCOCC1)n1nc2ccccc2n1 (stereo not given) | 19.4 µM | 14 µM | 13.8 µM | 25.5 µM | 10.9 µM | 32.7 µM | > 63.1 µM | 63.3 µM | 32.4 µM | 16.4 µM | – | – | – | – | – | – | – | – | – | –
COc1ccc(OC)c2sc(N3C(=O)/C(=C/c4cccc([N+](=O)[O-])c4)N=C3c3ccccc3)nc12 | > 100 µM | > 100 µM | > 100 µM | > 100 µM | > 100 µM | > 100 µM | > 100 µM | > 100 µM | > 100 µM | > 100 µM | – | – | – | – | – | – | – | – | – | –
CC(C)C(N)C(=O)NC(CCC(=O)NCCCCC(N)C(=O)NCCCNc1ccc([N+](=O)[O-])c2[nH]c3ccccc3c(=O)c12)C(N)=O (stereo not given) | 46.5 µM | > 100 µM | > 100 µM | > 100 µM | > 100 µM | > 100 µM | > 100 µM | > 100 µM | > 100 µM | > 100 µM | – | – | – | – | – | – | – | – | – | –
O=C(OCC1OC(n2nc(Cn3nnc(-c4cccnc4)n3)n(-c3cccc4ccccc34)c2=S)C(OC(=O)c2ccccc2)C1OC(=O)c1ccccc1)c1ccccc1 (stereo not given) | > 100 µM | > 100 µM | > 100 µM | > 100 µM | > 100 µM | > 100 µM | > 100 µM | > 100 µM | > 100 µM | > 100 µM | – | – | – | – | – | – | – | – | – | –
CC(C)/C(Cl)=N/OC(=O)Nc1ccc(OC(F)(F)F)cc1 | 18.3 µM | 33.5 µM | 21.3 µM | 26.6 µM | 30.4 µM | 26.6 µM | 31.6 µM | 31.5 µM | 29.3 µM | 30.2 µM | – | – | – | – | – | – | – | – | – | –
Clc1ccc(/C(=C\c2ccccc2)Cn2ccnc2)cc1 | 42.2 µM | 33.4 µM | 25.6 µM | 47.8 µM | 31.9 µM | 38.1 µM | 49.4 µM | 58.3 µM | > 100 µM | 35.8 µM | – | – | – | – | – | – | – | – | – | –
CCOC(=O)c1ccc(Nc2nc3ccc(C(F)(F)F)cc3nc2C(=O)OCC)cc1 | > 100 µM | > 100 µM | > 100 µM | > 100 µM | > 100 µM | > 100 µM | > 100 µM | > 100 µM | > 100 µM | > 100 µM | – | – | – | – | – | – | – | – | – | –
c1ccc(C2CC(=NC3CCCCC3)Nc3ccccc3N2)cc1 (stereo not given) | > 100 µM | > 100 µM | 43.7 µM | > 100 µM | > 100 µM | > 100 µM | > 100 µM | > 100 µM | > 100 µM | > 100 µM | – | – | – | – | – | – | – | – | – | –
C=CC(=O)N1C/C(=C\c2ccc(Cl)cc2)C(=O)/C(=C/c2ccc(Cl)cc2)C1 | 0.659 µM | 3.84 µM | 5.11 µM | 3.65 µM | 0.751 µM | 1.6 µM | 2.67 µM | 3.66 µM | 4.01 µM | 1.02 µM | – | – | – | – | – | – | – | – | – | –
O=C1C(C(O)(C(F)(F)F)C(F)(F)F)CCC1C(O)(C(F)(F)F)C(F)(F)F (stereo not given) | 26 µM | > 83.6 µM | 16.2 µM | 34.8 µM | 98.3 µM | > 73.2 µM | > 100 µM | > 100 µM | > 100 µM | > 100 µM | – | – | – | – | – | – | – | – | – | –
Cc1cc(NS(=O)(=O)c2ccc(NC(NC(=O)C(C(F)(F)F)C(F)(F)F)(C(F)(F)F)C(F)(F)F)cc2)no1 | > 100 µM | > 100 µM | > 100 µM | > 100 µM | > 100 µM | > 100 µM | > 100 µM | > 100 µM | > 100 µM | > 100 µM | – | – | – | – | – | – | – | – | – | –
COP(=O)(OC)C(Nc1ccc(Cc2ccc(NC(c3ccco3)P(=O)(OC)OC)cc2)cc1)c1ccco1 (stereo not given) | 19.9 µM | > 100 µM | > 100 µM | > 100 µM | > 100 µM | > 100 µM | 71.3 µM | > 100 µM | 29.3 µM | 50.5 µM | – | – | – | – | – | – | – | – | – | –
Cc1cc(O)c(-c2cc(O)c(C)cc2O)cc1O | 5.93 µM | 16.7 µM | 28.4 µM | 20.1 µM | 27.6 µM | 22.7 µM | 40.2 µM | 28.5 µM | 16 µM | 29.8 µM | – | – | – | – | – | – | – | – | – | –
CCN(CC)CCO/N=C1\CC[C@H]2[C@@H]3CCc4cc(OC)ccc4[C@H]3CC[C@]12C | 3.92 µM | 7.95 µM | 3.21 µM | 2.54 µM | 9.29 µM | 1.28 µM | 25 µM | 16.7 µM | 15.9 µM | 2.02 µM | – | – | – | – | – | – | – | – | – | –
C=CCN1C(=O)/C(=C/c2ccc(C)cc2)N=C1SC1OC(COC(C)=O)C(OC(C)=O)C(OC(C)=O)C1OC(C)=O (stereo not given) | > 39.5 µM and 61.6 µM | > 100 µM | > 100 µM | > 100 µM | > 100 µM | > 100 µM | > 100 µM | > 100 µM | > 100 µM | > 100 µM | 5.59 µM and 31.5 µM | 11.2 µM and 32.9 µM | > 73 µM and 32.9 µM | > 100 µM and 34.2 µM | 3.83 µM and 37.1 µM | – | – | – | – | –
O=C1c2cccc(O)c2C(=O)c2c(OC3OC(CO)C(O)C(O)C3O)cccc21 (stereo not given) | 97.3 µM | > 100 µM | 36 µM | 39.9 µM | 82 µM | > 100 µM | > 100 µM | > 100 µM | > 100 µM | > 100 µM | – | – | – | – | – | – | – | – | – | –
COc1ccc(-n2nc(C)c3c(Nc4ccc(NC(=O)Nc5ccc(Cl)c(C(F)(F)F)c5)cc4)ncnc32)cc1 | 2.17 µM | 11.7 µM | 3.23 µM | 4.66 µM | 3.95 µM | 3.98 µM | 7.88 µM | > 100 µM | 12.3 µM | 3.74 µM | 2.84 µM | 1.72 µM | 1.88 µM | 1.16 µM | 1.78 µM | 617 nM | 1800 nM | 2490 nM | 3.33 µM | 2880 nM
COc1ccc(Oc2cnn(C(Br)(Br)C(C)=O)c(=O)c2Br)cc1 | 16.8 µM | 27 µM | 30 µM | 28.5 µM | 27.4 µM | 32.4 µM | 56.8 µM | 42.2 µM | 26.3 µM | 29.6 µM | – | – | – | – | – | – | – | – | – | –
c1ccc([P+](CCCCCCCC[P+](c2ccccc2)(c2ccccc2)c2ccccc2)(c2ccccc2)c2ccccc2)cc1 | > 100 µM | > 100 µM | 40.7 µM | > 37.7 µM | > 30.8 µM | > 100 µM | > 100 µM | > 100 µM | > 73.7 µM | > 94.4 µM | – | – | – | – | – | – | – | – | – | –
C[C@]12CC[C@@H]3c4ccc(O)cc4CC[C@H]3[C@@H]1C/C(=C\c1ccc(C#N)cc1)C2=O | 52.6 µM | > 100 µM | > 100 µM | > 100 µM | > 100 µM | > 100 µM | > 100 µM | > 100 µM | > 100 µM | > 100 µM | – | – | – | – | – | – | – | – | – | –
CC(C)C1=C(O)C2=C(C(=O)C1=O)C1(C)CCCC(C)(C)C1C(O)C2OC=O (stereo not given) | 20.2 µM | 20.1 µM | 18.9 µM | 21.6 µM | 30.6 µM | 13.1 µM | 31.7 µM | 19.1 µM | 26.2 µM | 19.4 µM | – | – | – | – | – | – | – | – | – | –
Nc1ccc(-c2nn3c(COc4ccc(Cl)cc4)nnc3s2)cc1 | > 100 µM | > 100 µM | > 100 µM | > 100 µM | > 100 µM | > 100 µM | > 100 µM | > 100 µM | > 100 µM | > 100 µM | – | – | – | – | – | – | – | – | – | –
CC(C)=CCC[C@@H](C)C1=C(O)C(N)=C(C)C(=O)C1=O | > 100 µM | > 64.8 µM | > 86 µM | > 100 µM | > 100 µM | > 100 µM | > 100 µM | > 100 µM | > 100 µM | > 93.4 µM | – | – | – | – | – | – | – | – | – | –
O=C(/C=C/c1ccc2c(c1)OCO2)Cc1nc2ccccc2[nH]c1=O | 33.6 µM | > 100 µM | > 100 µM | 59.5 µM | 47.9 µM | 61.5 µM | 49.4 µM | 71.6 µM | 34.2 µM | > 100 µM | – | – | – | – | – | – | – | – | – | –
O=[N+]([O-])c1ccc2c(c1)c(N=NC(=S)Nc1ccc(Cl)cc1)c(O)n2CN1CCOCC1 | 19.9 µM | 23.4 µM | 17.7 µM | 26.5 µM | 21.9 µM | 26.6 µM | 20.8 µM | 22.2 µM | 24.5 µM | 17.7 µM | – | – | – | – | – | – | – | – | – | –
O=C1C=CC(=O)C(CNc2ccc(C(=O)OCc3ccccc3)cc2)=C1 | 8.54 µM | 16.8 µM | 11.6 µM | 25.2 µM | 13.4 µM | 17.4 µM | 26.5 µM | 25.1 µM | 14.9 µM | 22.6 µM | – | – | – | – | – | – | – | – | – | –
